Reference: patent publication US20030118983A1, “Rapid screening procedure for inflammation mediators” (priority 2000, published 2003)

How the values were obtained:
Type in all cases: cell-based, human
PMNs [1] = experiment: Heme protein effect on DCFH oxidation in unstimulated, LPS and TNFα-, and PMA-stimulated PMNs, with or without NOS inhibitors, SOD or antioxidants; conditions: for increase in DCFH oxidation compared with 0 and 1000 μg/mL oxyMb: 30 μg/mL oxyMb
Protocol: DCFH-loaded PMNs were incubated with and without N-methyl-L-arginine (L-NMMA; 5 mM; Calbiochem, San Diego, Calif.) and heme proteins (0.3-1000 μg/mL) at 37 ° C. for 10 minutes. […] In unstimulated and LPS and TNFα -stimulated PMNs, the treatments were oxyMb, or oxyMb+L-NMMA (5 mM). […] RBC cell membranes were ruptured using a micro-ultrasonic cell disrupter, Kontes, Janke and Kukel Gmbh and CO. (Stauten, Germany). […] OxyMb was prepared by mixing excess sodium dithionite with Mb for 1 h and inorganic sulfur compounds were removed by dialyzing in HBSS buffer for 3 h. Percent iron in the ferric state in non-dithionite treated oxyMb or oxyHb was not assessed. […] […] cross-linked Hb was a gift from Walter Reed Army Institute of Research. […] Also, various concentrations of bovine liver Cu, Zn SOD (30-10,000 U/mL; 8-2640 μg/mL) and 30 μg/mL oxyMb were incubated with PMA-stimulated PMNs pretreated with and without L-NMMA. Flow cytometric measurements of oxidant-induced DCF fluorescence were performed as described above.

PMNs [2] = experiment: Total nitrite/nitrate levels in filtrates of PMA-stimulated PMNs; conditions: oxyMb 30 μg/mL
Protocol: Total nitrate and nitrite levels in filtrates of PMNs were determined by reducing the nitrate to nitrite by nitrate reductase and reacting the resulting nitrite with 2,3-diaminonaphthalene to form a fluorescent product. PMNs (500,000/300 ul HBSS) were treated with oxyMb (1-1000 µg/mL) and SOD (30 U) for 10 min followed by PMA (200 nM) for 1 h at 30° C. Filtrates were collected by centrifugation at 16,000 g for 15 min through Ultrafree-MC 10,000 NMWL filters (Millipore, Bedford, Mass.). Total nitrite levels were determined with a 96-well fluorescence analyzer (IDEXX, Westbrook, Me.). PMNs exposed to the same treatment were analyzed by flow cytometry for DCFH oxidation.

PMNs [3] = experiment: Phosphatidylserine externalization on PMN plasma membrane (annexin V); conditions: oxyMb 30 μg/mL, PMA 1 h
Protocol: Levels of phosphatidylserine on the outer surface of plasma membrane were determined by FITC-labeled annexin V (8 μg per 300,000 PMNs/100 μL) according to manufacturer's instructions (Caltag Laboratories, Burlingame, Calif.). PMNs were incubated with and without L-NMMA (5 mM) and oxyMb (1-1000 μg/mL) for 10 min at 37° C. followed by PMA (200 nM) for 1 h at 37° C. PMNs were then incubated with annexin V for 30 min and propidium iodide (0.75 mM) for 2-3 min at 4° C. prior to flow cytometric analyses.

PMNs [4] = experiment: DNA strand breaks in PMA-activated PMNs (tdt-mediated dUTP nick end labeling); conditions: oxyMb 30 μg/mL, PMA 2 h
Protocol: OxyMb effect on DNA strand breaks in PMA-activated PMNs was measured by flow cytometry using the tdt-mediated dUTP nick end labeling assay (In Situ Cell Death Detection Kit, Fluorescein, Boehringer Mannheim, Indianapolis, Ind.) according to manufacturer's instructions. PMNs were incubated with and without NMMA (5 mM) and oxyMb (1-1000 μg/mL) for 10 min at 37° C. PMNs were subsequently treated with PMA (200 nM) for 2 h at 37° C. Label solutions without terminal transferase or with DNase I (10 U) served as negative and positive controls, respectively.

PMNs [5] = experiment: Propidium iodide determination of PMN viability (membrane integrity); conditions: oxyMb 30 μg/mL, PMA 2 h
Protocol: (§1) PMNs were incubated with and without L-NMMA (5 mM) and oxyMb (1-1000 μg/mL) for 10 min at 37° C. followed by PMA (200 nM) for 2 h at 37° C. Membrane integrity was determined flow cytometry analyses after a 2-3 min treatment with PI (0.75 mM).

PMNs [6] = experiment: ATP levels in PMA-activated PMNs (bioluminescent somatic cell assay); conditions: oxyMb 30 μg/mL, PMA 2 h
Protocol: OxyMb effect on ATP levels in PMA-activated PMNs was measured using the Bioluminescent Somatic Cell Assay Kit according to the manufacturer's instructions. PMNs were incubated with and without L-NIO (5 mM) and oxyMb (1-1000 μg/mL) for 10 min at 37° C. PMNs were subsequently treated with PMA (200 nM) for 2 h at 37° C. PMNs were lysed, frozen at −20° C. and analyzed within 24 h. Emitted light was determined in a camera luminometer, Tropix (Redford, Mass.) using Panchromatic black and white, ISO 20,000, type 612 film, Polaroid (Cambridge, Mass.) with an exposure time of 2.5 min. Level of exposure was measured and digitized with a solid state camera, COHU (San Diego, Calif.) and analyzed using the public domain NIH Image 1.55 program. Statistical analysis. All values are presented as mean±SEM. The Kolmogorov-Smirnov test was used to verify the normal distribution of the data. Groups were compared by using analysis of variance with the Fisher least significant difference (LSD) post hoc procedure. Statistical significance was accepted at P values<0.05.

lymphocytes = experiment: Plasma membrane integrity of lymphocytes co-incubated with PMA-activated, oxyMb-treated PMNs; conditions: oxyMb 30 μg/mL
Protocol: as §1
A mixed PMN/lymphocyte preparation was used to determine if the NO. produced by PMNs could affect the plasma membrane integrity of neighboring lymphocytes. PMA-activated and oxyMb (30 μg/mL)-treated PMNs decreased lymphocyte plasma membrane integrity as the ratio of PMNs/lymphocyte increased from 0:1 (76%) to 4:1 (68%) to 10:1 (61%).

PMNs [7] = experiment: Extracellular O2.− produced by PMA-stimulated PMNs (cytochrome c reduction)
Protocol: PMNs (200,000/200 μl HBSS) were treated with various concentrations of oxyMb or bovine liver Cu, Zn SOD (0.05-1000 μg/mL) in a 340 ATTC 96-well reader (SLT-Labinstruments, Salzburg, Austria) and activated with PMA. O2.^− production was determined by measuring reduction of cytochrome c, at 550 nm.

PMNs [8] = experiment: Heme protein effect on DCFH oxidation in unstimulated, LPS and TNFα-, and PMA-stimulated PMNs, with or without NOS inhibitors, SOD or antioxidants; conditions: 10,000 U/mL; 26,300 μg/mL, 30 μg/mL oxyMb
PMNs [9] = experiment: OxyHb-FLEX bound to and internalized into PMNs (flow cytometry); conditions: concentrations ≧30 μg/mL
Protocol: OxyHb bound to and internalized into PMNs was determined using fluorescein-conjugated oxyHb (Molecular Probes, Eugene, Oreg.). […] Flow cytometric measurements were performed as described above. To visualize intracellular levels of oxyHb-FLEX, whole cell and Z-plane images of PMNs were collected using an Axiovert 135 inverted confocal microscope (Zeiss, Thornwood, N.Y., and Atto Instruments, Rockville, Md.).

[10] = LPS and TNFα-stimulated PMNs, 30 ug/mL oxyMb

oxymyoglobin [oxyMb]
oxyMb concentration at which DCFH oxidation peaked (PMNs [1]; LPS and TNFα-stimulated PMNs): 30 µg/mL | increase in DCFH oxidation compared with 0 μg/mL oxyMb (PMNs [1]; [10]): approximately 6 fold | increase in DCFH oxidation compared with 1000 μg/mL oxyMb (PMNs [1]; [10]): ~3 fold | oxyMb concentration of peak response in DCFH oxidation (PMNs [1]; PMA-stimulated PMNs): 30 µg/mL | increase in DCFH oxidation compared with 0 and 1000 μg/mL oxyMb (PMNs [1]; PMA-stimulated PMNs): approximately 3 fold | DCFH fluorescence relative to control levels (PMNs [1]; oxyMb 100 μg/mL in the presence of albumin, data not shown): 5 times | increase in DCFH oxidation compared with 0 and 1000 μg/mL oxyMb (PMNs [1]; unstimulated PMNs): approximately 4 fold | nitrite levels compared with untreated PMNs (PMNs [2]): doubling | phosphatidylserine positive PMNs (PMNs [3]): 20% | phosphatidylserine positive PMNs, greater than PMNs without oxyMb (PMNs [3]): 5 fold | PMNs containing DNA strand breaks (PMNs [4]): 50% | PMNs containing DNA strand breaks, greater than PMNs without oxyMb (PMNs [4]): 4 fold | PMN plasma membrane damage (reduced viability) (PMNs [5]): 87% | PMN plasma membrane damage, higher than PMNs without oxyMb (PMNs [5]): 3 fold | intracellular ATP levels (PMNs [6]): 6 ng/300,000 PMNs | intracellular ATP levels, lower than PMNs without oxyMb (PMNs [6]): 9 fold | lymphocyte plasma membrane integrity (lymphocytes; PMNs/lymphocyte ratio 0:1, PMA): 76% | lymphocyte plasma membrane integrity (lymphocytes; PMNs/lymphocyte ratio 4:1, PMA): 68% | lymphocyte plasma membrane integrity (lymphocytes; PMNs/lymphocyte ratio 10:1, PMA): 61%

Bovine liver SOD: bovine liver Cu, Zn superoxide dismutase
SOD concentration producing peak levels of DCFH oxidation (PMNs [1]; PMA-stimulated PMNs, in the presence of 30 μg/mL oxyMb): 300 U/mL | potency in reducing extracellular O2.− relative to oxyMb (PMNs [7]): 100-1000 fold | effect on DCF fluorescence at highest SOD concentration (PMNs [8]): reduced DCF fluorescence below control levels

fluorescein-5-EX succinimidyl ester conjugated to oxyhemoglobin [OxyHb-FLEX]
OxyHb-FLEX bound to and internalized into PMA-stimulated PMNs relative to unstimulated PMNs (PMNs [9]): 2-6 fold
